Tests used:
cMET = cMET (Homo sapiens, UniProt P08581); experiment: Evaluation of inhibitory activity against MET (TR-FRET kinase assay); assay type: biochemical; details: cMET protein, TK peptide substrate
Experimental: In addition, in order to measure the enzyme activity inhibition for cMET, the evaluation was performed in the same manner as the enzyme activity inhibition measurement experiment for RON.
(§1) Specifically, the compound was prepared to a concentration of 1 mM in 100% DMSO and was diluted 10 times in a stepwise manner through 3-fold dilution. The compound (2 ul) diluted in a stepwise manner was added to a 96-well-plate containing 48 ul of a 1× kinase reaction buffer (50 mM HEPES (pH 7.4), 0.05% BSA, 0.005% Tween-20, 1 mM DTT, 0.5 mM MnCl2, 20 mM MgCl2).
The cMET protein was diluted to a concentration of 263 nM in a cMET storage buffer (50 mM Tris-HCl (pH 7.5), 150 mM NaCl, 0.05% Brij35, 1 mM DTT, 10% Glycerol), and then diluted again to a concentration of 2 nM in a 1× kinase reaction buffer. As a substrate cocktail, a MET-specific substrate mixed solution (5 uM TK peptide, 10 mM ATP) was prepared at a concentration 2 times the final reaction concentration.
(§2) Thereafter, a 384-well-plate was prepared, and 2.5 μl of each of the diluted compounds of Examples was added to a corresponding well of experimental group wells, and 2.5 μl of a 4% DMSO solution was dispensed into high control wells and low control wells.
(§3) Thereafter, 2.5 μL of 2 nM cMET was dispensed into each of the high control wells and the experimental group wells, and 2.5 μL of the 1×kinase reaction buffer was added to the low control wells, and all the wells were centrifuged at room temperature for 40 seconds at 1,000 RPM, and then incubated at room temperature for 20-30 minutes. Then, 5 uL of the substrate cocktail (2×) was dispensed into each well, and all the wells were centrifuged at room temperature for 40 seconds at 1,000 RPM, and then incubated at room temperature for 60 minutes. Thereafter, 5 uL of 90 mM EDTA was added to each well to terminate the reaction, and all the wells were then incubated again at room temperature for 5 minutes. Thereafter, 5 uL of a 4× phosphotyrosine antibody (Perkin Elmer) containing europium was added to each well, and all the wells were then incubated at room temperature for 60 minutes. After the incubation, the 384-well-plate was read with the Vison plate reader. In this case, the excitation wavelength was 340 nm, and the emission wavelength was 620 nm and 665 nm. The IC50 value of each compound of Examples was derived using the GraphPd Prism7 program.

RON = RON (Homo sapiens, UniProt Q04912); experiment: Evaluation of inhibitory activity against RON (TR-FRET kinase assay); assay type: biochemical; details: RON protein, ULight-labeled Poly GT substrate
Experimental: In order to measure the inhibitory activity of each of the compounds of Examples against RON, the IC50 of each of the compounds was measured using Time-resolved fluorescence energy transfer (TR-FRET).
as §1, with “7.4), 0.01%” for “7.4), 0.05% BSA, 0.005%”, “Tween-20, 5” for “Tween-20, 1”, “mM Na3VO4, 2 mM EGTA, 10” for “mM MnCl2, 20”
The RON protein was diluted to a concentration of 49.3 nM in a RON storage buffer (50 mM Tris-HCl (pH 7.5), 150 mM NaCl, 0.5 mM EDTA, 0.02% Triton X-100), and then diluted again to a concentration of 0.4 nM in a 1×kinase reaction buffer. As a substrate cocktail, a RON-specific substrate mixed solution (40 uM ULight-labeled Poly GT, 100 nM ATP) was prepared at a concentration 2 times the final reaction concentration.
as §2
as §3, with “of 0.4” for “of 2”, “nM RON” for “nM cMET”, “the 1× kinase” for “the 1×kinase”, “of 30” for “of 90”

RON, sequence (Q04912 25-1400, species assumed): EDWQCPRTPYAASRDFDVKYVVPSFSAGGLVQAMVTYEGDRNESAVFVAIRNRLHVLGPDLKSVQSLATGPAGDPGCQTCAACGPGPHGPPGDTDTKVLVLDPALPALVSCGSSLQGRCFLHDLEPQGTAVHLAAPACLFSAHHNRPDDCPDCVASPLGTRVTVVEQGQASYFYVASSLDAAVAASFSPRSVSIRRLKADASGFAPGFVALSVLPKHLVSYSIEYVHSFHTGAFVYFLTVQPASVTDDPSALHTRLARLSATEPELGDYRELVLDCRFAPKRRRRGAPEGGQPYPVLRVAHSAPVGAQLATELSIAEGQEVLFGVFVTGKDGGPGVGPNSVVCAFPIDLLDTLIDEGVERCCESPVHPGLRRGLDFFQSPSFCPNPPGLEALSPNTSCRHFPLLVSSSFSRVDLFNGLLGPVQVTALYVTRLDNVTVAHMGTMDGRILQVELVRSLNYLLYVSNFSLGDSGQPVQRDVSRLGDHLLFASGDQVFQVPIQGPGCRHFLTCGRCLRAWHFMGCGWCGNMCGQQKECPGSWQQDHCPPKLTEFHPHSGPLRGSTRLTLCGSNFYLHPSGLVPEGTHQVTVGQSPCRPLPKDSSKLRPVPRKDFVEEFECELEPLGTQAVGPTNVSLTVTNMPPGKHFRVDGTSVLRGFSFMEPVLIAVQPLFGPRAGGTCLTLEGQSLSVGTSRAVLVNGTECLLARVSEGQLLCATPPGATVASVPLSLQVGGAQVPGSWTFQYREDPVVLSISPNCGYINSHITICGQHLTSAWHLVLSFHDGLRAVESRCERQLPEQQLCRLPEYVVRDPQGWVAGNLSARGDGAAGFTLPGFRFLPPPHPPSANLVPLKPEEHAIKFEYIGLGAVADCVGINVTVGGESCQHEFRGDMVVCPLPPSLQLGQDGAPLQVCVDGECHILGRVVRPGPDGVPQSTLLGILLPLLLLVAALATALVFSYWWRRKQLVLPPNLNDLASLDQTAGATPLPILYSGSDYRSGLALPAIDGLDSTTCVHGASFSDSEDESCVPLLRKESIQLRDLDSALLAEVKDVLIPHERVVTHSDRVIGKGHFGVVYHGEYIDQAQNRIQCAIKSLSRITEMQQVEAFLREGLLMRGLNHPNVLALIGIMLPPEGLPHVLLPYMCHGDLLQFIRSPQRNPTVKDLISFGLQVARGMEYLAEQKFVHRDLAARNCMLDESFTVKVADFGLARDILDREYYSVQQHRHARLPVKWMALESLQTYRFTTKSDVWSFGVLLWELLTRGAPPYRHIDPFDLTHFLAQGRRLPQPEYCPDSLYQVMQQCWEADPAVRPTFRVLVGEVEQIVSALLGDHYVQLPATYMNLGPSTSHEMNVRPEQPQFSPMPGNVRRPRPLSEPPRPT
cMET, sequence (P08581 25-1390): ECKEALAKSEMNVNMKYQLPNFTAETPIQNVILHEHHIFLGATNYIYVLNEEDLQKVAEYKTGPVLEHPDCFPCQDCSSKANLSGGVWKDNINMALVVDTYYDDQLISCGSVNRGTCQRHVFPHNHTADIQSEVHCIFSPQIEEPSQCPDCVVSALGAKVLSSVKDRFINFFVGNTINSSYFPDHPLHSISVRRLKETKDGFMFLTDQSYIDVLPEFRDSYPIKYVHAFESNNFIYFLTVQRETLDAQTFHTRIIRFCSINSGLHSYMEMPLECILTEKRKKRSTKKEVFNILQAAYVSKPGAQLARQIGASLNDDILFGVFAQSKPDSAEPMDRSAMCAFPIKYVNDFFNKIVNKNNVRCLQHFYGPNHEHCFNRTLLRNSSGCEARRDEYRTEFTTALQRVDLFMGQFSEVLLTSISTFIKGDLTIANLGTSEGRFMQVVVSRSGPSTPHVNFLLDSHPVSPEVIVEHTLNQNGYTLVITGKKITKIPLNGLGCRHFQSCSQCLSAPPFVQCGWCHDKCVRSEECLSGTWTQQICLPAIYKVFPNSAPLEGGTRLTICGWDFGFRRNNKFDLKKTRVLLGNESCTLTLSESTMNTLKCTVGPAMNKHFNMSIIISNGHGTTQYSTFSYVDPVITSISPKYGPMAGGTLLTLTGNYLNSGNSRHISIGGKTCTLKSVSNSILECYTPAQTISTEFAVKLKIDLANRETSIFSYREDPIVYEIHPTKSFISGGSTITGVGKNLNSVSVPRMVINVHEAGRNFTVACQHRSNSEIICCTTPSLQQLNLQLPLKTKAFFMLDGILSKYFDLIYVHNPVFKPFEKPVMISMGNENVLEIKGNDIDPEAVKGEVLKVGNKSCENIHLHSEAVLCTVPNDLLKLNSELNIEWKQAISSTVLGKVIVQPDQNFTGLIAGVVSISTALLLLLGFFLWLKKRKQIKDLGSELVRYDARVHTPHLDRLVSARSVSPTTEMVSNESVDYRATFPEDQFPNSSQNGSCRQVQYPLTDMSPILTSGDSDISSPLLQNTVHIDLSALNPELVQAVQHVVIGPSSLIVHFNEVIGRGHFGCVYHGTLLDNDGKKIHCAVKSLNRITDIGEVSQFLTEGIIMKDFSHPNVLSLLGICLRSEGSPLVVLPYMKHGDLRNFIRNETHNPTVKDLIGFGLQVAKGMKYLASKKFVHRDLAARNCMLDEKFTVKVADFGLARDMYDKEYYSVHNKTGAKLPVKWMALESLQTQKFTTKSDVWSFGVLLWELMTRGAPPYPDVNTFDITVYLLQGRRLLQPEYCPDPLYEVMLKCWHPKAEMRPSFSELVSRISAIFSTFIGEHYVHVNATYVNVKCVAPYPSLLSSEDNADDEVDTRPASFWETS

SMILES | IC50 (cMET) [nM] | IC50 (RON) [nM]
Nc1ncnc(Oc2ccc(NC(=O)c3cnn(-c4ccccc4F)c3C(F)(F)F)cc2F)c1Cl [Example 52, N-[4-(6-amino-5-chloro-pyrimidin-4-yl)oxy-3-fluorophenyl]-1-(2-fluorophenyl)-5-(trifluoromethyl)pyrazole-4-carboxamide] | 500 to 5000 | 50 to 500
Nc1nccc(Oc2ccc(NC(=O)c3ncc(-c4ccccc4)s3)cc2F)c1Cl [Example 32, N-(4-((2-amino-3-chloropyridin-4-yl)oxy)-3-fluorophenyl)-5-phenylthiazole-2-carboxamide] | > 5000 | 500 to 5000
Cc1nn(-c2ccccc2)c(C)c1C(=O)Nc1ccc(Oc2ncnc(N)c2Cl)c(F)c1 [Example 48, N-(4-((6-amino-5-chloro-pyrimidin-4-yl)oxy)-3-fluorophenyl)-3,5-dimethyl-1-phenyl-1H-pyrazole-4-carboxamide] | > 5000 | 50 to 500
Nc1nccc(Oc2ccc(NC(=O)c3cn(-c4ccccc4)nn3)cc2F)c1Cl [Example 40, N-(4-((2-amino-3-chloropyridin-4-yl)oxy)-3-fluorophenyl)-1-phenyl-1H-1,2,3-triazole-4-carboxamide] | > 5000 | > 5000
COc1ccccc1-n1ncc(C(=O)Nc2ccc(Oc3ccnc(N)c3Cl)c(F)c2)c1C(F)(F)F [Example 16, N-(4-((2-amino-3-chloropyridin-4-yl)oxy)-3-fluorophenyl)-1-(2-methoxyphenyl)-5-(trifluoromethyl)-1H-pyrazole-4-carboxamide] | > 5000 | 50 to 500
CN1CCCC(n2ncc(C(=O)Nc3ccc(Oc4ncnc(N)c4Cl)c(F)c3)c2C(F)(F)F)C1 (stereo not drawn) [Example 60, N-[4-(6-amino-5-chloro-pyrimidin-4-yl)oxy-3-fluorophenyl]-1-(1-methyl-3-piperidyl)-5-(trifluoromethyl)pyrazole-4-carboxamide] | > 5000 | 500 to 5000
O=C(Nc1ccc(Oc2ccnc(Cl)c2)c(F)c1)c1ncn(-c2ccccc2)c1C(F)(F)F [Example 24] | > 5000 | > 5000
Cc1nn(-c2ccccc2)c(C)c1C(=O)Nc1ccc(Oc2ccnc(N)c2Cl)c(F)c1 [Example 4, N-(4-((2-amino-3-chloropyridin-4-yl)oxy)-3-fluorophenyl)-3,5-dimethyl-1-phenyl-1H-pyrazole-4-carboxamide] | > 5000 | 50 to 500
Cc1nc(-c2ccccc2)sc1C(=O)Nc1ccc(Oc2ncnc(N)c2Cl)c(F)c1 [Example 61, N-[4-(6-amino-5-chloro-pyrimidin-4-yl)oxy-3-fluorophenyl]-4-methyl-2-phenyl-thiazole-5-carboxamide] | > 5000 | 500 to 5000
C=CC(=O)Nc1nccc(Oc2ccc(NC(=O)c3ncn(-c4ccccc4)c3C(F)(F)F)cc2F)c1Cl [Example 21] | > 5000 | 50 to 500
Nc1ncnc(Oc2ccc(NC(=O)c3ccn(-c4ccccc4)n3)cc2F)c1Cl [Example 53, N-[4-(6-amino-5-chloro-pyrimidin-4-yl)oxy-3-fluorophenyl]-1-phenyl-pyrazole-3-carboxamide] | > 5000 | 500 to 5000
Nc1nccc(Oc2ccc(NC(=O)c3cnn(-c4ccccc4)c3C(F)(F)F)c(F)c2)c1Cl [Example 45, N-(4-((2-amino-3-chloropyridin-4-yl)oxy)-2-fluorophenyl)-1-phenyl-5-(trifluoromethyl)-1H-pyrazole-4-carboxamide] | > 5000 | 50 to 500
Nc1nccc(Oc2ccc(NC(=O)c3cnn(-c4ccccc4)c3)cc2F)c1Cl [Example 7, N-(4-((2-amino-3-chloropyridin-4-yl)oxy)-3-fluorophenyl)-1-phenyl-1H-pyrazole-4-carboxamide] | > 5000 | 500 to 5000
Nc1nccc(Oc2ccc(NC(=O)c3onc(-c4ccccc4)c3C(F)(F)F)cc2F)c1Cl [Example 38, N-(4-((2-amino-3-chloropyridin-4-yl)oxy)-3-fluorophenyl)-3-phenyl-4-(trifluoromethyl)isoxazole-5-carboxamide] | > 5000 | 50 to 500
Nc1nccc(Oc2ccc(NC(=O)c3cnc(-c4ccccc4)s3)cc2F)c1Cl [Example 30, N-(4-((2-amino-3-chloropyridin-4-yl)oxy)-3-fluorophenyl)-2-phenylthiazole-5-carboxamide] | > 5000 | 50 to 500
